Data from patent publication US20220409620A1, “REDUCING IMMUNOGENICITY TO PEGLOTICASE” (Horizon Pharma Rheumatology LLC, priority 2016, published 2022).
Like-named read-outs stand apart in the source and are kept apart here.

Key:
patients = conditions: cited from earlier work
[1] = system: adult patients with uncontrolled gout; conditions: human, in vivo

## CN(Cc1cnc2nc(N)nc(N)c2n1)c1ccc(C(=O)N[C@@H](CCC(=O)O)C(=O)O)cc1 [MTX, methotrexate]
patients; RA
  Increased susceptibility to infection: < 1%
  Leukopenia: 28%
  Nausea and vomiting: 12%
patients; renal transplant
  Increased susceptibility to infection: 20%
  Leukopenia: > 50%
  neoplasia (lymphoma): 0.5%
  neoplasia (other than lymphoma): 3%
[1]
  Number of gout flares among subjects with at least one gout flare, Mean (SD): 1.2
  Number of gout flares among subjects with at least one gout flare, Median: 1.0
[1]; 1 day
  Any Gout Flares Since the Last Visit, %: (57.1) %
  Maximum Reported Intensity of Flare (0-10 scale), Mean: 5.8
  Maximum Reported Intensity of Flare (0-10 scale), Median: 5.5
  Maximum Reported Intensity of Flare (0-10 scale), Min, Max: 4, 8
  Pain at rest > 3 out of 10, %: (57.1) %
  Pain different than normal, %: (50.0) %
  Swelling in Joints, %: (42.9) %
[1]; -4 week
  Maximum Reported Intensity of Flare (0-10 scale), Median: 8.0
  Maximum Reported Intensity of Flare (0-10 scale), Min, Max: 7, 10
